Laboratory results as given in ChEMBL document CHEMBL5346964, “Discovery of LNP1892: A Precision Calcimimetic for the Treatment of Secondary Hyperparathyroidism” (J Med Chem, 2023).

What was measured:
hERG = hERG (Homo sapiens, UniProt Q12809); test: Inhibition of hERG at 1 uM relative to control; format: toxicity
[1] = Clearance in Sprague-Dawley rat at 1 mg/kg, iv measured upto 24 hrs by LC-MS/MS analysis; format: ADME, organism-based; settings: in vivo
[2] = Cmax in Sprague-Dawley rat at 10 mg/kg, po administered as solution measured upto 24 hrs by LC-MS/MS analysis; format: ADME, organism-based; set-up: dose 10 mg/kg, time < 24 hrs, route po; settings: in vivo
[3] = Effect on parathyroid hormone in overnight fasted Sprague-Dawley rat assessed as reduction in plasma PTH level at 3 mg/kg, po measured after 6 hrs of post treatment by sandwich ELISA analysis; format: functional; set-up: scale not given: the % may be the effect or the level left
Rattus norvegicus [4] = test: Effect on parathyroid hormone in po dosed overnight fasted Sprague-Dawley rat assessed as reduction in plasma PTH level measured after 0.5 to 6 hrs of post treatment by sandwich ELISA analysis; format: functional, organism-based; settings: dose 3-30 mg/kg, time 0.5-6 hrs
Rattus norvegicus [5] = test: Acute effect on parathyroid hormone in overnight fasted adenine diet-induced chronic kidney disease Wistar rat model assessed as reduction in plasma PTH level at 3 mg/kg, po measured after 1 hrs of post treatment by sandwich ELISA analysis; format: functional; set-up: scale not given: the % may be the effect or the level left
Rattus norvegicus [6] = test: Acute effect on parathyroid hormone in overnight fasted adenine diet-induced chronic kidney disease Wistar rat model plasma assessed as reduction in plasma PTH level at 1 mg/kg, po measured after 4 hrs of post treatment by sandwich ELISA analysis; format: functional; set-up: scale not given: the % may be the effect or the level left
Rattus norvegicus [7] = test: Chronic effect on parathyroid hormone in overnight fasted adenine diet-induced chronic kidney disease Wistar rat model plasma assessed as reduction in plasma PTH level at 3 mg/kg, po qd measured after 27 days of post treatment by sandwich ELISA analysis; format: functional; set-up: scale not given: the % may be the effect or the level left; settings: time 27 day
[8] = Cmax in Sprague-Dawley rat at 30 mg/kg; format: ADME, organism-based; set-up: dose 30 mg/kg; settings: in vivo
[9] = Tmax in Sprague-Dawley rat at 100 mg/kg; format: ADME, organism-based; settings: in vivo
[10] = Cmax in Sprague-Dawley rat at 100 mg/kg; format: ADME, organism-based; set-up: dose 100 mg/kg; settings: in vivo
[11] = Efflux ratio of apparent permeability across basolateral to apical over apical to basolateral membrane in human Caco-2 cells at 5 uM measured after 120 mins by LC-MS/MS analysis; format: ADME, cell-based
[12] = Kinetic solubility of compound in 20% HP-beta-CD upto 500 uM measured after 16 hrs under shaking condition by UV-visible method; format: physicochemical; settings: read-out: Kinetic_solubility
[13] = Plasma clearance in Beagle dog at 1 mg/kg, iv measured upto 24 hrs by LC/MS-MS analysis; format: ADME, organism-based, Canis lupus familiaris
[14] = Volume of distribution at steady state in Beagle dog at 1 mg/kg, iv measured upto 24 hrs by LC/MS-MS analysis; format: ADME, organism-based, Canis lupus familiaris; settings: in vivo, read-out: Vdss
[15] = Volume of distribution at steady state in cynomolgus monkey at 1 mg/kg, iv measured upto 24 hrs by LC/MS-MS analysis; format: ADME, organism-based, Macaca fascicularis; settings: in vivo, read-out: Vdss
[16] = Half life in BALB/c mouse at 1 mg/kg, iv measured upto 24 hrs by LC/MS-MS analysis; format: ADME, organism-based; settings: in vivo
[17] = Tmax in BALB/c mouse at 10 mg/kg, po measured upto 24 hrs by LC/MS-MS analysis; format: ADME, organism-based; settings: in vivo
[18] = Cmax in Sprague-Dawley rat at 10 mg/kg, po measured upto 24 hrs by LC/MS-MS analysis; format: ADME, organism-based; set-up: dose 10 mg/kg, time < 24 hrs, route po; settings: in vivo
[19] = AUC in Beagle dog at 5 mg/kg, po measured upto 24 hrs by LC/MS-MS analysis; format: ADME, organism-based, Canis lupus familiaris; set-up: dose 5 mg/kg, time < 24 hrs, route po; settings: in vivo
[20] = Drug excretion in BALB/c mouse assessed as drug recovery in urine at 10 mg/kg, po; format: ADME, organism-based; settings: read-out: Drug recovery
[21] = Drug excretion in rat assessed as drug recovery in urine at 1 mg/kg, iv; format: ADME, organism-based; settings: read-out: Drug recovery
[22] = AUC(0 to t) in rat at 50 mg/kg per day, po via gavage administered for 2 weeks; format: ADME, organism-based; set-up: dose 50 mg/kg, time 2 weeks, route po; settings: in vivo
[23] = AUC(0 to t) in human at 10 mg/kg, po administered as single dose; format: ADME, organism-based; set-up: dose 10 mg/kg, route po; settings: in vivo
[24] = Cmax in human at 25 mg/kg, po administered as single dose; format: ADME, organism-based; set-up: dose 25 mg/kg, route po; settings: in vivo
[25] = Plasma protein binding in human; format: ADME; settings: read-out: PPB
[26] = target: T1, 5-hydroxytryptamine receptor 1A (Homo sapiens) (UniProt P08908); test: Inhibition of human recombinant 5-HT1A receptor at 10 uM relative to control
T1 sequence (whole entry): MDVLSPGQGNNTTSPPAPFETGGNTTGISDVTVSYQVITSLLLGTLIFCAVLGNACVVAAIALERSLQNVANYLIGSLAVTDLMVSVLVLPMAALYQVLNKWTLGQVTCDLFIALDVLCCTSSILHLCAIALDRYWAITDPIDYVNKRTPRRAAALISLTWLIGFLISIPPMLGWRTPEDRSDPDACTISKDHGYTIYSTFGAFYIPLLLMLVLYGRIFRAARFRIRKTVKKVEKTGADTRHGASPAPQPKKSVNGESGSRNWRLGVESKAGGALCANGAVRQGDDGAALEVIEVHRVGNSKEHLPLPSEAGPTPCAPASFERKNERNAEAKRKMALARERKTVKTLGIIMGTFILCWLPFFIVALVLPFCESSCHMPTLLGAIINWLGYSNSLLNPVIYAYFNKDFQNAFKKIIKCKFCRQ

[27] = target: Delta-type opioid receptor (Homo sapiens) (UniProt P41143); test: Inhibition of human recombinant DOP receptor at 10 uM relative to control
Delta-type opioid receptor (Homo sapiens), sequence (P41143 whole entry): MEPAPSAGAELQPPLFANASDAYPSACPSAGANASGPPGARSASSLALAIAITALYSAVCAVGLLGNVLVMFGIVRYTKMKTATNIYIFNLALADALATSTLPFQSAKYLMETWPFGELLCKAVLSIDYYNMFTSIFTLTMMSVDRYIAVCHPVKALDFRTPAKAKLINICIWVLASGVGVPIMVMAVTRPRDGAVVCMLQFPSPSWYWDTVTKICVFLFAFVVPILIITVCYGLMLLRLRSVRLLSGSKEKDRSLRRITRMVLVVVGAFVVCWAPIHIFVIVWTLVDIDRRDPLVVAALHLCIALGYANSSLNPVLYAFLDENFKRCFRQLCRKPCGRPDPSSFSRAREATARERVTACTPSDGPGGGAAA

hERG, sequence (Q12809 whole entry): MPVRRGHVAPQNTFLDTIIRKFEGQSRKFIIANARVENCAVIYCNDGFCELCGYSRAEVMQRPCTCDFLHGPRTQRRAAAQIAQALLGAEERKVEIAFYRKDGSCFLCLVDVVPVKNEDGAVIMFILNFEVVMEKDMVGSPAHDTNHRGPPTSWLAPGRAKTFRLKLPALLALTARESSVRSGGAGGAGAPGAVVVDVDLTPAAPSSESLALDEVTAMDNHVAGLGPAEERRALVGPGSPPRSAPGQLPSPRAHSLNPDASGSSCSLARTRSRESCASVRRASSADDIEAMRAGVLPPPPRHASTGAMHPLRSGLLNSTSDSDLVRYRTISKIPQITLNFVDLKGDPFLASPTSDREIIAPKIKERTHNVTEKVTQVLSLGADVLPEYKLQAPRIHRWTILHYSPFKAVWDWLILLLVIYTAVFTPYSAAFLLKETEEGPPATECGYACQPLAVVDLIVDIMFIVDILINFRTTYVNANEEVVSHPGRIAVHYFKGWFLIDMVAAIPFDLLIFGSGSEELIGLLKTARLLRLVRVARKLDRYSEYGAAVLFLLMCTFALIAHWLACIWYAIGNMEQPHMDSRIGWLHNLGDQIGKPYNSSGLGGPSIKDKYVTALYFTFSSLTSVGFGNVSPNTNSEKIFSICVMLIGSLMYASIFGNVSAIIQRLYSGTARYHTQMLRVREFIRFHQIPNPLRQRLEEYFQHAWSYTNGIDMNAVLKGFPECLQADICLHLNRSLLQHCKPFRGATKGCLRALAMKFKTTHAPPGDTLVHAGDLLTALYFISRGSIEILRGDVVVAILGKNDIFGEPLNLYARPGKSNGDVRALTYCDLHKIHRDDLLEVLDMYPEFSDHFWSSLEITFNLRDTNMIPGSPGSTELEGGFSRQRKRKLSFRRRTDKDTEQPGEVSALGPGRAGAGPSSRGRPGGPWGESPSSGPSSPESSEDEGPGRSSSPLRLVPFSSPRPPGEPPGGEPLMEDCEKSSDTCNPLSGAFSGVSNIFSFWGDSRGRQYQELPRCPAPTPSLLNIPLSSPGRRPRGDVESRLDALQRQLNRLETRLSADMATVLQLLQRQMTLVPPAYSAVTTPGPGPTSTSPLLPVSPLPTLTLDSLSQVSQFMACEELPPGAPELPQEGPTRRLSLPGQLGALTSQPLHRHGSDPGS

**Q.** Which inhibition at 1 µM (hERG) does the source give for `Cc1ccc([C@@H]2C[C@H](CN[C@H](C)c3cccc4ccccc34)Oc3ccccc32)cc1C(=O)O.Cl` here?
**A.** 1%

**Q.** What about the clearance [1] of the same molecule?
**A.** 0.24 L/h/kg

**Q.** And the Cmax [2]?
**A.** 14 µM

**Q.** What about the Activity [3] of the same molecule?
**A.** 18%

**Q.** And the Activity (Rattus norvegicus [4])?
**A.** Dose-Dependent Effect

**Q.** What about the Activity (Rattus norvegicus [5]) of the same molecule?
**A.** 96%

**Q.** What about the Activity (Rattus norvegicus [6]) of the same molecule?
**A.** 84%

**Q.** What about the Activity (Rattus norvegicus [7]) of the same molecule?
**A.** 83%

**Q.** What about the Cmax [8] of the same molecule?
**A.** 24 µM

**Q.** And the Tmax [9]?
**A.** 1 h

**Q.** And the Cmax [10]?
**A.** 53 µM

**Q.** What about the efflux ratio at 2 h, 5 µM [11] of the same molecule?
**A.** 0.3

**Q.** And the solubility kinetic at 16 h, 500 µM [12]?
**A.** > 200 µM

**Q.** What about the clearance [13] of the same molecule?
**A.** 0.12 L/h/kg

**Q.** What about the Vd [14] of the same molecule?
**A.** 0.7 L/kg

**Q.** What about the Vd [15] of the same molecule?
**A.** 20 L/kg

**Q.** And the half-life [16]?
**A.** 3 h

**Q.** And the Tmax [17]?
**A.** 0.25 h

**Q.** What about the Cmax [18] of the same molecule?
**A.** 14 µM

**Q.** What about the AUC at 24 h [19] of the same molecule?
**A.** 63 µM·h

**Q.** What about the dose excreted [20] of the same molecule?
**A.** < 1%

**Q.** What about the dose excreted [21] of the same molecule?
**A.** < 1%

**Q.** What about the AUC(0-t) at 336 h [22] of the same molecule?
**A.** 108 µg·h/mL

**Q.** What about the AUC(0-t) [23] of the same molecule?
**A.** 1.84 µg·h/mL

**Q.** And the Cmax [24]?
**A.** 0.367 µg/mL

**Q.** What about the fraction unbound [25] of the same molecule?
**A.** < 0.01

**Q.** What about the inhibition [26] of the same molecule?
**A.** > 50%

**Q.** And the inhibition [27]?
**A.** > 50%
